Test results reported in patent publication US12304894B2, “Derivatives of adamantyl oxadiazoles and pharmaceutically acceptable solvates, hydrates and salts thereof, pharmaceutical composition comprising same, synthesis method, suitable for use as effective and selective inhibitors of the reductase activity of the enzyme 11-beta dehydrogenase type 1 …” (PONTIFICIA UNIVERSIDAD CATOLICA DE CHILE, priority 2019, dated 2025).

What was measured:
Type in all cases: biochemical
[1] = molecular target: T1, recombinant 11β-HSD1 enzyme (Homo sapiens (Human), UniProt P28845); assay: 11β-HSD1 oxidase activity (HTRF Cortisol Kit); details: for 11b-HSD1 oxidase (activ rem %) 100 nM: remaining activity at 100 nM compound; for 11b-HSD1 oxidase (activ rem %) 100 uM: remaining activity at 100 uM compound
T1 sequence (P28845 whole entry): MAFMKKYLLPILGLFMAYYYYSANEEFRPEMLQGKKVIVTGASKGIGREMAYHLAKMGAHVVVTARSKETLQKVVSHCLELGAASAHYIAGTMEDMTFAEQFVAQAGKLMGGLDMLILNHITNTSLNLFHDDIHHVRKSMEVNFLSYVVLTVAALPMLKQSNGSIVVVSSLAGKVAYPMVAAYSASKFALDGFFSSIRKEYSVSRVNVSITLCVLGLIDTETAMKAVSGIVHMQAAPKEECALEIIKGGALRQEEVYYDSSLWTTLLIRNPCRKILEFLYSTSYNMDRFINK
Method: Determination of 11β-HSD1 Oxidase Activity
The Cortisol Kit (Cisbio) product was used for that purpose.
For the analysis, the compounds are reconstituted in DMSO in a stock of 10 mM concentration, from which serial dilutions were prepared for the efficiency curve.
The recombinant 11β-HSD1 enzyme dilutions were prepared in 20 mM Tris Buffer 5 mM EDTA pH 6.0 (Tris buffer).
Initially, the enzyme concentration to be used was determined. For this purpose, a plate for HRTF was prepared with Tris buffer with 100 nM cortisol and 200 μM NADP+, including in the wells of the plate for HTRF together with the enzyme in a 4:1 ratio, respectively, and incubated for 2 hours at 37° C. After this time, the reagents of the Cortisol kit, Cortisol d2 and Cortisol cryptate in sample ratio, Cortisol d2 and cortisol cryptate 2:1:1 were added, incubating this new reaction for 1 hour at room temperature. Subsequently, the fluorescence was determined at 665 and 620 nm.
An HRTF plate was again prepared, where the reaction buffer, the recombinant 11β-HSD1 enzyme and the compound were added in each well in a 3:1:1 ratio, respectively. The plate was incubated at 37° C. for 2 hours. After the incubation time, the reagents of the cortisol kit, cortisol d2 and cortisol cryptate, were added as indicated above. They were then incubated at room temperature for 1 hour to finally read the fluorescence at 665 and 620 nm.

[2] = molecular target: T1, recombinant 11β-HSD1 enzyme; assay: 11β-HSD1 reductase activity (HTRF Cortisol Kit); details: 266 nM cortisone, 333 μM NADPH, read-out: 11b-HSD1 reductase (HTRF) IC50
Method: Determination of 11β-HSD1 Reductase Activity
First, stock solutions of the compounds were prepared in DMSO at a concentration of […], of which serial dilutions were made in order to determine the efficacy curve.
As for the recombinant 11β-HSD1 enzyme (Cayman Chemical, MI, USA; Item No. 10007815), it was prepared in Tris Buffer 20 mM EDTA 5 mM pH 6.0 (Tris buffer) at different dilutions.
Initially, the enzyme concentration to be used in the assays in order to evaluate the biological activity of the compounds was determined. The Cortisol Kit product (Cisbio, MA, USA; Cat no. 62CRTPEG) was used for that purpose.
The protocol consisted of preparing the reaction buffer, adding 266 nM cortisone and 333 μM NADPH in Tris buffer. Then, this reaction buffer is added to the wells of the HTRF (Homogeneous Time Resolved Fluorescence) reaction plate together with the enzyme in a 4:1 ratio respectively, and incubated for 2 hours at 37° C. In the case of the control wells, two wells with Tris buffer were added, without compounds.
After the incubation time, the reagents of the Cortisol kit were added, Cortisol d2 and Cortisol cryptate in sample ratio, Cortisol d2 and cortisol cryptate 2:1:1, in a quantity according to the size of the well as indicated by the supplier (for the negative control of the kit, the cortisol d2 is replaced by the kit's reconstitution buffer). This reaction is incubated for 1 hour at room temperature in order to later read the fluorescence at 665 and 620 nm.
Once the enzyme concentration to be used has been determined, the cortisol kit protocol is continued to determine the efficacy curve for the compounds. As previously done, a plate for HTRF was prepared adding to each well of the reaction buffer, the recombinant 11β-HSD1 enzyme and the compounds to be assayed in a 3:1:1 ratio, respectively. The plate was subsequently incubated at 37° C. for 2 hours.
After the incubation time, the reagents of the cortisol kit, cortisol d2 and cortisol cryptate, are added, and were incubated again for 1 hour at room temperature. Finally, the fluorescence of each well was determined at 665 and 620 nm.

11β-HSD2 = 11β-HSD2 oxidase activity in human hepatic microsomes (HTRF Cortisol Kit); details: remaining activity at 100 nM compound
Method: Determination of 11β-HSD2 Oxidase Activity
The concentration of cortisone produced in the reaction, with and without the compounds, was determined using the Cortisol Kit (Cisbio) product in order to evaluate the 11β-HSD2 oxidase activity.
As in the previous assays, the compounds are reconstituted in DMSO to 10 mM stock, in order to subsequently make serial dilutions to determine the efficacy curve.
To perform the assay, the HTRF plate was prepared containing Tris buffer, 100 nM cortisol and 200 μM NAD^+. Enzyme is added to the corresponding wells in a 4:1 ratio, respectively, and incubated for 2 hours at 37° C. For the kit control, two wells are added only with Tris buffer.
After the incubation time, the reagents of the Cortisol kit, Cortisol d2 and Cortisol cryptate, in a sample ratio, Cortisol d2 and cortisol cryptate 2:1:1 are added. For the negative control, cortisol d2 was replaced in some wells by the kit's reconstitution buffer. The plate was incubated for 1 hour at room temperature to later read at 665 and 620 nm.
For this purpose, the reaction buffer was prepared and subsequently, in a plate for HTRF, the reaction buffer, the microsomes in a concentration of 5 mg/mL and the compound in a ratio of 3:1:1, respectively, were added to each well. In the case of reaction controls, the reaction buffer without cortisol and without compound is included for the negative control. For the positive control, no compound is added, and for the kit controls, only the reaction buffer is added to the negative and positive control wells.
After incubating the plate for 2 hours, the reagents of the cortisol kit, cortisol d2 and cortisol cryptate, are added to the corresponding wells as indicated above. They are then incubated at room temperature for 1 hour to finally read the 665 and 620 nm fluorescence.

| Structure (SMILES) | 11b-HSD1 oxidase (activ rem %) 100 nM [1] [%] | 11b-HSD1 oxidase (activ rem %) 100 uM [1] [%] | IC50 [2] [nM] | 11b-HSD2 oxidase (activ rem %) Microcosms 100 nM (11β-HSD2) [%] |
| --- | --- | --- | --- | --- |
| c1ccc(CCc2nc(C34CC5CC(CC(C5)C3)C4)no2)cc1 [BD-31, 1-phenyl-2-(3-adamantyl-1,2,4-oxadiazol-5-yl)ethane] | 86.1 | 86.20 | 147 | 55.4 |
| COc1ccc(CCc2nc(C34CC5CC(CC(C5)C3)C4)no2)cc1 [BD-32, 1-(4-methoxyphenyl)-2-(3-adamantyl-1,2,4-oxadiazol-5-yl)ethane] | 104.1 | 62.7 | 95.4 | 60.0 |
| Clc1ccc(CCc2nc(C34CC5CC(CC(C5)C3)C4)no2)cc1 [BD-33, 1-(4-chlorophenyl)-2-(3-adamantyl-1,2,4-oxadiazol-5-yl)ethane] | 107.0 | 75.4 | 9.2 | 59.4 |
| Fc1ccc(CCc2nc(C34CC5CC(CC(C5)C3)C4)no2)cc1 [BD-34, 1-(4-fluorophenyl)-2-(3-adamantyl-1,2,4-oxadiazol-5-yl)ethane] | 109.0 | 77.2 | 104 | 68.8 |
| Brc1ccc(CCc2nc(C34CC5CC(CC(C5)C3)C4)no2)cc1 [BD-35, 1-(4-bromophenyl)-2-(3-adamantyl-1,2,4-oxadiazol-5-yl)ethane] | 91.3 | 104.0 | 9.9 | 79.5 |
| Cc1ccc(CCc2nc(C34CC5CC(CC(C5)C3)C4)no2)cc1 [BD-36, 1-(4-methylphenyl)-2-(3-adamantyl-1,2,4-oxadiazol-5-yl)ethane] | 110.3 | 95.3 | 102 | 40.1 |
| Oc1ccc(CCc2nc(C34CC5CC(CC(C5)C3)C4)no2)cc1 [BD-37, 1-(4-hydroxyphenyl)-2-(3-adamantyl-1,2,4-oxadiazol-5-yl)ethane] | 109.6 | 88.1 | 1.1 | 58.3 |
| COc1cccc(CCc2nc(C34CC5CC(CC(C5)C3)C4)no2)c1 [BD-38, 1-(3-methoxyphenyl)-2-(3-adamantyl-1,2,4-oxadiazol-5-yl)ethane] | 88.1 | 100.5 | 102 | 61.9 |
| c1cc(CCc2nc(C34CC5CC(CC(C5)C3)C4)no2)ccn1 [BD-39, 1-(4-pyridyl)-2-(3-adamantyl-1,2,4-oxadiazol-5-yl)ethane] | 89.4 | 75.3 | 97 | 59.2 |
| CC(C)(C)c1ccc(CCc2nc(C34CC5CC(CC(C5)C3)C4)no2)cc1 [BD-41, 1-(4-tert-butylphenyl)-2-(3-adamantyl-1,2,4-oxadiazol-5-yl)ethane] | 85.9 | 86.1 | 102 | 49.7 |
| Fc1cccc(CCc2nc(C34CC5CC(CC(C5)C3)C4)no2)c1 [BD-42, 1-(3-fluorophenyl)-2-(3-adamantyl-1,2,4-oxadiazol-5-yl)ethane] | 83.0 | 89.8 | 92 | 59.2 |
| c1ccc(CCc2nc(C34CC5CC(CC(C5)C3)C4)no2)nc1 [BD-45, 1-(2-pyridyl)-2-(3-adamantyl-1,2,4-oxadiazol-5-yl)ethane] | 97.4 | – | 1.1 | 70.2 |
| O=[N+]([O-])c1ccc(CCc2nc(C34CC5CC(CC(C5)C3)C4)no2)cc1 [BD-46, 1-(4-nitrophenyl)-2-(3-adamantyl-1,2,4-oxadiazol-5-yl)ethane] | 104.6 | 65.4 | 24 | 62.0 |
